Experimental data as given in patent publication US9451909B2, “System and method for detecting amyloid proteins” (Cognoptix, Inc., priority 2010, dated 2016).

How the values were obtained:
[1] = Ocular pharmacokinetics study, topical ointment, fluorescence lifetime and intensity measurements in the lens; type: in vivo, Dutch-belted rabbits
Description: Ocular pharmacokinetic investigation of dose response via topical administration of fluorescence amyloid-binding compound was performed in Dutch-belted rabbits. The rabbits were tested each day over a 4 day period using Compound #11 amyloid-binding compound in an ointment. Two animals were dosed in the right eye with Compound #11 (0.5%) in ointment form. One animal was untreated and used as control animal. The animals were dosed at specific time points for four days and tested with SAPPHIRE II system for fluorescence intensity and lifetime measurements at the beginning and end of each day.
All animals were dosed with Compound #11 via topical ocular application and tested in the right eye. Animals were anesthetized and manually held on a platform in front of the Neuroptix SAPPHIRE II device. Gross positioning was done by the animal handler, and fine tuning of the measurement location was done by the Neuroptix SAPPHIRE II operator. Once aligned, the SAPPHIRE II operator initiated the measurement sequence. Baseline measurements were made on the animals before dosing, and then at the beginning and end of each day (Table 1).
Fluorescence lifetime and intensity measurements were performed in the eye at the beginning and at the end of each day. The measurements entailed scanning the rabbit eye axially (z-scan) to obtain inter-ocular information and a planar scan (xy-scan) to perform lifetime decay measurements in a certain region of the eye, which is the lens nucleus in this case.
Once the location of interest was identified, Time Correlation Single Photon Counting (TCSPS) was initiated while performing the xy-scan. The fluorescence lifetime images were then obtained where the decay lifetime histogram was obtained for each pixel location. The calculated decay times were color coded in the fluorescence lifetime image. Each measurement was performed three times. The frequency count of photons of specific decay rates were calculated from the decay rates frequency that of the Compound #11 signature obtained in the xy-scan and averaged over the three measurements. […] The device was specifically designed for human use but the platform was slightly modified for holding the rabbits.
Group 1: Animals were anesthetized with subcutaneous injection of Dexdomitor (0.5 mg/kg), Ketamine (5 mg/kg). A ribbon of ointment approximately ½ inch long was then applied to the lower right eyelid of each animal in the test group three times a day for four days.

[2] = target: aggregated beta-amyloid (Aβ) peptide (Homo sapiens, UniProt P05067); settings: cited from earlier work
[3] = system: aggregated Aβ(1-42) peptide; experiment: In vitro fluorescence lifetime measurements of Compound #11 with aggregated Aβ peptide (SAPPHIRE II device); type: binding; settings: unbound; 4 μM Compound #11, PBS, 25° C.
Description: (§1) In accordance with an embodiment of the invention, in vitro studies on aggregated Aβ peptides bound to Compound #11 were performed. Fluorescence lifetime measurements of Compound #11 with aggregated Aβ peptide were performed using a device in accordance with an embodiment of the invention. FIG. 8A is a fluorescence lifetime image showing Compound #11 and Compound #11 bound to aggregated Aβ peptide, with their corresponding fluorescence lifetime histograms shown in FIG. 8B, in accordance with an embodiment of the invention. By fitting the lifetime histograms, the decay rates are determined. […] An experimental description follows.
(§2) The purpose of this in vitro study was to identify the optical signature of the Compound #11 amyloid-binding compound, and to characterize its fluorescence properties when bound to aggregated Aβ peptide. […]
(§3) The Neuroptix SAPPHIRE II device (Neuroptix Corporation, Acton, Mass., U.S.A.) is a purpose built device for clinical studies in humans, which was adapted for in vitro measurements for this experiment. It employs a confocal scanning mechanism combined with fluorescence lifetime spectroscopy that allows differentiation of fluorophores. The device allows 1) scanning of the optical beam to specific locations in the anterior segments of the eye, such as the supranucleus and 2) identification of fluorescent fluorophores based on fluorescence lifetime measurements.
(§4) Aggregated Aβ peptide was prepared by dissolving Aβ(1-42) in PBS pH 7.4 to a final concentration of 100 μM. […] The solution was transferred to 5 mL vial and the fluorescence measurements were performed at 25° C.
(§5) The sample consisting of Compound #11 was placed in front of the Neuroptix SAPPHIRE II Device. Once the location of the scan in the sample was determined, a raster scan was performed to obtain fluorescence lifetime measurements. […] The shading that makes up most of the image background represents a lifetime decay of 1.4 nsec, which corresponds to that of the fluorescence amyloid-binding compound. […]

[4] = target: T1, aggregated Aβ(1-42) peptide (Homo sapiens, UniProt P05067); experiment: as above; type: binding
T1 construct: Aggregated Aβ peptide was prepared by dissolving Aβ(1-42) in PBS pH 7.4
Description: as §1, §2, §3, §4, §5

[5] = Fluorescence spectra and fluorescence lifetime histogram of Compound #11; type: physicochemical
Text: In an embodiment according to the invention, the light source may be configured to emit light of an appropriate wavelength for a peak region of a fluorescent excitation spectrum for the amyloid-binding compound bound to the amyloid protein in the eye, and the optical unit may be configured to detect light of an appropriate wavelength for a peak region of a fluorescent emission spectrum for the amyloid-binding compound bound to the amyloid protein in the eye. For example, where the amyloid-binding compound is Compound #11, the excitation spectrum has a peak of about 470 nm, and the light source may be configured to emit light within plus or minus about 20 nm of the peak of about 470 nm, such as within plus or minus 5 nm, plus or minus 10 nm, plus or minus 15 nm or plus or minus 20 nm of 470 nm. Further, the emission spectrum for Compound #11 has a peak of about 580 nm, and the optical unit may be configured to detect light within plus or minus about 20 nm of the peak of about 580 nm, such as within plus or minus 5 nm, plus or minus 10 nm, plus or minus 15 nm or plus or minus 20 nm of 580 nm. In general, there is typically a shift between the peak of the excitation spectrum and the peak of the emission spectrum of a fluorescent compound. […] For example, an emission spectrum having a peak greater than about 500 nm is advantageous for distinguishing from the natural autofluorescence of the eye. […] FIG. 12 is an emission spectrum of the fluorescent amyloid-binding compound Compound #11 when excited at 470 nm, in accordance with an embodiment of the invention. Other excitation and emission spectra that may be used will be apparent to those of skill in the art based on the foregoing.
A fluorescent histogram of the fluorescent amyloid-binding compound Compound #11 is shown in FIG. 6, obtained by a device in accordance with an embodiment of the invention. Single exponential fitting results in a lifetime decay rate of 2 nsec.

T1 sequence (P05067 672-713): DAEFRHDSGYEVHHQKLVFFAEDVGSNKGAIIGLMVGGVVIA
aggregated beta-amyloid (Aβ) peptide, sequence (P05067 672-713 limits assumed): as the sequence (P05067 672-713) above

fluorescence signal after repetitive topical administration ([1]; 5 mg/g in ointment form, three times a day for four days): Detectable fluorescence signal
decay rate in lifetime image of the lens (xy-scan) ([1]; animal 1003, end of fourth day): 2 nsec
change of fluorescence in the lens nucleus over four days ([1]; measured at beginning and end of each day, 4 days, rabbits 1002 and 1003): increase of Compound #11 fluorescence
time of stay in the lens nucleus ([1]; repetitive topical administration): at least 12 hours
accumulation in the lens nucleus ([1]; repetitive topical administration, after several hours of application): tended to accumulate in the nucleus
fluorescence lifetime decay (time decay rate) of unbound compound [3]: 1.4 nsec
difference in fluorescence lifetime, bound vs unbound ([4]; Compound #11 vs Compound #11 bound to aggregated Aβ peptide): 0.85 nsec
fluorescence lifetime decay (time decay rate) of compound bound to aggregated Aβ peptide ([4]; bound to aggregated Aβ(1-42) 5 μM, 4 μM Compound #11, 25° C.): 2.25 nsec
excitation spectrum peak [5]: about 470 nm
emission spectrum peak ([5]; excited at 470 nm): about 580 nm
lifetime decay rate ([5]; single exponential fitting of fluorescent histogram (FIG. 6)): 2 nsec
SMILES: COCCOCCOCCOC(=O)/C(C#N)=C/c1ccc2cc(N3CCCCC3)ccc2c1 [Compound #11, (E)-2-(2-(2-methoxyethoxy)ethoxy)ethyl-2-cyano-3-(6-(piperidin-1-yl)naphthalen-2-yl)acrylate]
penetration of the cornea and detection in the lens ([1]; topical ocular, rabbit eyes): penetrate the cornea and be detected by the device in the lens
binding to aggregated beta-amyloid (Aβ) peptide [2]: has been shown to bind
